This is an account of results in US9896418B2, “Aryl ethers and uses thereof” (Peloton Therapeutics, Inc., priority 2013, dated 2018).

One may read the IC50 as the concentration at which inhibition is half-maximal. A higher IC50 goes with weaker potency.

The assay has as its system HIF-2α HIS TAG-PASB Domain. Description: HIF-2α Scintillation Proximity Assay (SPA). The format is binding. The procedure: The percent inhibition was determined and IC50 values were calculated using the Dotmatics system based on the following equation: % inhibition=[(high control−sample)/(high control−low control)]×100.
`Cc1cc(Oc2cc(F)cc(C#N)c2)c2c(c1S(C)(=O)=O)C(O)C(F)(F)C2` (stereo not shown) [Compound 213, 3-((2,2-Difluoro-1-hydroxy-6-methyl-7-(methylsulfonyl)-2,3-dihydro-1H-inden-4-yl)oxy)-5-fluorobenzonitrile] came in with an IC50 of 0.8 µM.

Regarding `O=S(=O)(c1ccc(Oc2ccc(F)c(F)c2)c2c1C(O)CC2)C(F)(F)F` (stereo not shown) [Compound 214, 4-(3,4-Difluorophenoxy)-7-((trifluoromethyl)sulfonyl)-2,3-dihydro-1H-inden-1-ol], the IC50 turned out to be 0.23 µM. As for `N#Cc1cc(Oc2ccc(S(=O)(=O)C(F)(F)F)c3c2CCC3O)ccc1F` (stereo not shown) [Compound 216, 2-Fluoro-5-((1-hydroxy-7-((trifluoromethyl)sulfonyl)-2,3-dihydro-1H-inden-4-yl)oxy)benzonitrile], half-maximal inhibition (IC50) required 2.7 µM.

`O=S(=O)(c1ccc(Oc2ccc(F)c(Cl)c2)c2c1C(O)CC2)C(F)(F)F` (stereo not shown) [Compound 218, 4-(3-Chloro-4-fluorophenoxy)-7-((trifluoromethyl)sulfonyl)-2,3-dihydro-1H-inden-1-ol] displayed an IC50 of 0.81 µM. Next, `CS(=O)(=O)c1cc(F)c(Oc2cc(F)cc(C#N)c2)c2c1C(O)C(F)(F)C2` (stereo not shown) [Compound 219, 3-Fluoro-5-((2,2,5-trifluoro-1-hydroxy-7-(methylsulfonyl)-2,3-dihydro-1H-inden-4-yl)oxy)benzonitrile]: 17 µM; `N#Cc1cncc(Oc2ccc(S(=O)(=O)C(F)(F)F)c3c2CCC3O)c1` (stereo not shown) [Compound 220, 5-((1-Hydroxy-7-((trifluoromethyl)sulfonyl)-2,3-dihydro-1H-inden-4-yl)oxy)nicotinonitrile]: 0.7 µM. Next, `O=S(=O)(c1ccc(Oc2ccc3[nH]ncc3c2)c2c1C(O)C(F)(F)C2)C(F)(F)F` (stereo not shown) [Compound 238, 4-((1H-Indazol-5-yl)oxy)-2,2-difluoro-7-((trifluoromethyl)sulfonyl)-2,3-dihydro-1H-inden-1-ol]: 4.9 µM; `O=S(=O)(c1ccc(Oc2cccc3[nH]ncc23)c2c1C(O)C(F)(F)C2)C(F)(F)F` (stereo not shown) [Compound 243]: 0.25 µM. The molecule `O=S(=O)(c1ccc(Oc2c(F)ccc3[nH]ncc23)c2c1C(O)C(F)(F)C2)C(F)(F)F` (stereo not shown) [Compound 244, 2,2-Difluoro-4-((5-fluoro-1H-indazol-4-yl)oxy)-7-((trifluoromethyl)sulfonyl)-2,3-dihydro-1H-inden-1-ol] displayed an IC50 of 1 µM. Next, `N#Cc1cc(F)cc(Oc2ccc(Br)c3c2C(F)(F)C(F)(F)C3)c1` [Compound 248, 3-((7-Bromo-2,2,3,3-tetrafluoro-2,3-dihydro-1H-inden-4-yl)oxy)-5-fluorobenzonitrile]: 17 µM.

`CS(=O)(=O)c1ccc(Oc2cc(C#N)cc(C(F)F)c2)c2c1C(O)CC2` (stereo not shown) [Compound 249, 3-(Difluoromethyl)-5-((1-hydroxy-7-(methylsulfonyl)-2,3-dihydro-1H-inden-4-yl)oxy)benzonitrile]: half-maximal inhibition (IC50) was put at 0.88 µM. Next, `N#Cc1cc(F)cc(Oc2ccc(S(=O)(=O)CCO)c3c2CC(F)(F)C3O)c1` (stereo not shown) [Compound 250, 3-((2,2-Difluoro-1-hydroxy-7-((2-hydroxyethyl)sulfonyl)-2,3-dihydro-1H-inden-4-yl)oxy)-5-fluorobenzonitrile]: 1.3 µM.

As to `N#Cc1cncc(Oc2ccc(S(N)(=O)=O)c3c2CC(F)(F)[C@H]3O)c1` [Compound 253, (S)-7-((5-Cyanopyridin-3-yl)oxy)-2,2-difluoro-3-hydroxy-2,3-dihydro-1H-indene-4-sulfonamide], the half-maximal inhibitory concentration (IC50) was determined as 18 µM.

The molecule `NS(=O)(=O)c1ccc(Oc2cc(F)cc(F)c2)c2c1C(O)CC2` (stereo not shown) [Compound 257, 7-(3,5-Difluorophenoxy)-3-hydroxy-2,3-dihydro-1H-indene-4-sulfonamide] came in with an IC50 of 1.9 µM. Next, `N#Cc1cc(F)cc(Oc2ccc(S(=N)(=O)C(F)(F)F)c3c2CCC3O)c1` (stereo not drawn) [Compound 258, 3-Fluoro-5-((1-hydroxy-7-(S-(trifluoromethyl)sulfonimidoyl)-2,3-dihydro-1H-inden-4-yl)oxy)benzonitrile]: 0.41 µM; `O=S(=O)(c1ccc(Oc2cc(F)c(F)c3[nH]ncc23)c2c1C(O)C(F)(F)C2)C(F)(F)F` (stereo not shown) [Compound 261, 4-((6,7-Difluoro-1H-indazol-4-yl)oxy)-2,2-difluoro-7-((trifluoromethyl)sulfonyl)-2,3-dihydro-1H-inden-1-ol]: 0.64 µM. The molecule `O=S(=O)(c1ccc(Oc2cc(F)cc3[nH]ncc23)c2c1C(O)C(F)(F)C2)C(F)(F)F` (stereo not shown) [Compound 262, 2,2-Difluoro-4-((6-fluoro-1H-indazol-4-yl)oxy)-7-((trifluoromethyl)sulfonyl)-2,3-dihydro-1H-inden-1-ol] registered an IC50 of 4.9 µM. The molecule `O=S(=O)(c1ccc(Oc2cccc3[nH]ncc23)c2c1[C@H](O)C(F)(F)C2)C(F)(F)F` [Compound 263, (S)-4-((1H-Indazol-4-yl)oxy)-2,2-difluoro-7-((trifluoromethyl)sulfonyl)-2,3-dihydro-1H-inden-1-ol] had an IC50 of 0.025 µM. For the molecule `O=S(=O)(c1ccc(Oc2c(F)ccc3[nH]ncc23)c2c1[C@H](O)C(F)(F)C2)C(F)(F)F` [Compound 264, (S)-2,2-Difluoro-4-((5-fluoro-1H-indazol-4-yl)oxy)-7-((trifluoromethyl)sulfonyl)-2,3-dihydro-1H-inden-1-ol], half-maximal inhibition (IC50) required 0.38 µM.

The molecule `N#Cc1cc(F)cc(Oc2ccc(S(=O)(=O)C(F)(F)F)c3c2CC(F)C3N)c1` (stereo not shown) [Compound 268, 3-((1-amino-2-fluoro-7-((trifluoromethyl)sulfonyl)-2,3-dihydro-1H-inden-4-yl)oxy)-5-fluorobenzonitrile] came in with a half-inhibitory concentration (IC50) of 3.5 µM. To `CS(=O)(=O)c1ccc(Oc2cc(F)cc(C#N)c2)c2c1C(=O)C(F)(Cl)C2` (stereo not shown) [Compound 269, 3-((2-chloro-2-fluoro-7-(methylsulfonyl)-1-oxo-2,3-dihydro-1H-inden-4-yl)oxy)-5-fluorobenzonitrile] belongs 0.31 µM; to `C[S+]([O-])c1ccc(Oc2cc(F)cc(C#N)c2)c2c1[C@H](O)C(F)(F)C2` (stereo partly drawn) [Compound 272, 3-[(1S)-2,2-Difluoro-1-hydroxy-7-methylsulfinyl-indan-4-yl]oxy-5-fluoro-benzonitrile], 2 µM. To `C=C1CC(O)c2c(S(C)(=O)=O)ccc(Oc3cc(F)cc(Cl)c3)c21` (stereo not shown) [Compound 280, 4-(3-chloro-5-fluorophenoxy)-3-methylene-7-(methylsulfonyl)-2,3-dihydro-1H-inden-1-ol] belongs 3.4 µM. To `N#CN=S(=O)(CF)c1ccc(Oc2cc(F)cc(C#N)c2)c2c1[C@H](O)CC2` (stereo partly drawn) [Compound 282, N—(((R)-7-(3-cyano-5-fluorophenoxy)-3-hydroxy-2,3-dihydro-1H-inden-4-yl)(fluoromethyl)(oxo)-λ^6-sulfanylidene)cyanamide] belongs 7.2 µM; to `N#CN=S(=O)(CF)c1ccc(Oc2cc(F)cc(C#N)c2)c2c1[C@H](O)CC2` (stereo partly drawn) [Compound 283, N—(((R)-7-(3-cyano-5-fluorophenoxy)-3-hydroxy-2,3-dihydro-1H-inden-4-yl)(fluoromethyl)(oxo)-λ^6-sulfanylidene)cyanamide], 1.4 µM.
